From ChEMBL document CHEMBL1151644, “Alkaloids and coumarins of Casimiroa edulis” (1985)

What was measured:
Rattus norvegicus [1] = assay: Diuretic activity in rat at 125 mg/kg; assay type: functional, Urine
Rattus norvegicus [2] = assay: Antiinflammatory activity against carrageenan-induced hind paw edema in rat at 100 mg/kg; assay type: functional

SMILES	Activity (Rattus norvegicus [1])	Activity (Rattus norvegicus [2])
CCCCCCCCCCCCCCCCCCCCCCCCCCCCCCC [HENTRIACONTANE]	84%	30.4%
COc1c2ccoc2c(OC)c2oc(=O)ccc12 [ISOPIMPINELLIN]	84%	30.4%
